Among the data in PubChem BioAssay (NCI) are TGI values, retold here.

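Method: 48-hour compound exposure of cells in 96-well plates, five concentrations, linear interpolation of endpoints. At the TGI there is no net growth.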 Where only a bound is given, the exact number is not on record here.

Among the test systems are HCT-116 colon; MDA-MB-435; U251 CNS; A549 NSCLC; SNB-19 CNS; SW-620 colon; MDA-N; NCI-H522 lung; EKVX NSCLC; MALME-3M melanoma; NCI/ADR-RES ovarian; UACC-62 melanoma; IGROV1 ovarian; HS 578T breast.
Holding throughout (assay): NCI anticancer screen, dose series, 48 h

For the compound `O=c1c2ccccc2nc(N/N=C/c2ccc(Cl)cc2)n1-c1ccccc1`, the TGI in the assay with HCT-116 colon, with MDA-MB-435, with U251 CNS, in the assay on A549 NSCLC, with SNB-19 CNS and with SW-620 colon was more than 100 µM in each case. Also, the TGI in the assay on MDA-N, with NCI-H522 lung, in the assay on EKVX NSCLC, with MALME-3M melanoma, in the assay with NCI/ADR-RES ovarian and in the assay with UACC-62 melanoma was more than 100 µM each time. This compound also returned a TGI with IGROV1 ovarian of more than 100 µM.
For the compound `CC12CCC(=O)[C@@]1(C)CCCC2O` (stereo partly drawn), the TGI in the assay with HCT-116 colon, in the assay on HS 578T breast, in the assay with U251 CNS, with A549 NSCLC, with SNB-19 CNS and with SW-620 colon was more than 100 µM in each case. Also, the TGI with MDA-N, in the assay with NCI-H522 lung, with EKVX NSCLC, in the assay on MALME-3M melanoma, in the assay with NCI/ADR-RES ovarian and in the assay on UACC-62 melanoma was more than 100 µM in each case. This compound also had a TGI in the assay on IGROV1 ovarian of more than 100 µM.
As for `N[C@H]1CCN(c2c(F)cc3c(=O)c(C(=O)O)cn4c3c2Oc2c-4ccc3c2ccc2ccccc23)C1`, the TGI in the assay with HCT-116 colon is more than 35.3 µM; with MDA-MB-435 it was more than 39.6 µM; with U251 CNS it was 6.76 µM; with A549 NSCLC, more than 100 µM; with SNB-19 CNS, more than 100 µM; in the assay with SW-620 colon, more than 100 µM. The TGI was more than 53.6 µM with MDA-N; more than 24.7 µM in the assay with EKVX NSCLC; more than 100 µM in the assay on MALME-3M melanoma; more than 100 µM in the assay on NCI/ADR-RES ovarian; more than 100 µM with UACC-62 melanoma; more than 48.8 µM with IGROV1 ovarian.
With `COC1(OC)C2C=CC1C([C@](C)(N)CO)C2` (stereo partly drawn), the TGI with HCT-116 colon, in the assay on MDA-MB-435, with HS 578T breast, with U251 CNS, in the assay with A549 NSCLC and in the assay on SNB-19 CNS was more than 100 µM in each case. The TGI in the assay with SW-620 colon, in the assay with MDA-N, in the assay on NCI-H522 lung, in the assay on EKVX NSCLC, in the assay on MALME-3M melanoma and in the assay on UACC-62 melanoma was more than 100 µM each time. The TGI in the assay with IGROV1 ovarian was more than 100 µM.
With `COC(=O)CNC(=O)CSc1nnc(COc2ccc(Cl)cc2)n1-c1ccccc1`, the TGI in the assay with HCT-116 colon was more than 100 µM; with MDA-MB-435, 48.4 µM; in the assay with U251 CNS, more than 100 µM; with A549 NSCLC, more than 100 µM; in the assay with SNB-19 CNS it was more than 100 µM; in the assay with SW-620 colon, more than 100 µM. Further, the TGI in the assay with MDA-N was 42.2 µM; in the assay with NCI-H522 lung, 34.7 µM; with EKVX NSCLC, more than 100 µM; in the assay with MALME-3M melanoma, more than 100 µM; in the assay on NCI/ADR-RES ovarian, more than 100 µM; with UACC-62 melanoma, more than 100 µM. In addition, the TGI in the assay with IGROV1 ovarian came out at 54 µM.
For `O=C(O)CCC(NC(=O)c1ccc(CNc2nc3cc(C(F)(F)F)ccc3nc2C(=O)O)cc1)C(=O)O` (stereo not drawn), the TGI with HCT-116 colon, in the assay with MDA-MB-435, in the assay with U251 CNS, with A549 NSCLC, in the assay with SNB-19 CNS and in the assay on SW-620 colon was more than 100 µM in each case. Also, the TGI with MDA-N, in the assay with NCI-H522 lung, in the assay on EKVX NSCLC, in the assay with MALME-3M melanoma, in the assay with NCI/ADR-RES ovarian and with UACC-62 melanoma was more than 100 µM each time. In the assay with IGROV1 ovarian, this compound registered a TGI of more than 100 µM.
As for `Nn1c(CCCCCCCCc2n[nH]c(=S)n2N)n[nH]c1=S`, the TGI with HCT-116 colon, in the assay with MDA-MB-435, in the assay with U251 CNS, with A549 NSCLC, in the assay on SNB-19 CNS and with SW-620 colon was more than 100 µM in each case. The TGI with MDA-N, in the assay with NCI-H522 lung, with EKVX NSCLC, in the assay on MALME-3M melanoma, in the assay with NCI/ADR-RES ovarian and in the assay on UACC-62 melanoma was more than 100 µM in each case. Moreover, the TGI in the assay with IGROV1 ovarian is more than 100 µM.
Consider `COc1cccc(CCn2c(N)c(C#N)c3ccc([N+](=O)[O-])cc3c2=O)c1`, for which the TGI in the assay with HCT-116 colon is more than 46.4 µM; with MDA-MB-435, more than 100 µM; in the assay on HS 578T breast, more than 46.4 µM; in the assay with U251 CNS, more than 100 µM; in the assay on A549 NSCLC, more than 46.4 µM; in the assay with SNB-19 CNS it was more than 100 µM. The TGI with SW-620 colon was more than 100 µM; in the assay on MDA-N, more than 100 µM; in the assay on EKVX NSCLC it was more than 31.6 µM; in the assay on MALME-3M melanoma, more than 31.6 µM; in the assay on NCI/ADR-RES ovarian it was more than 46.4 µM; with UACC-62 melanoma, more than 31.6 µM. In addition, the TGI in the assay on IGROV1 ovarian is more than 31.6 µM.
Take `COc1cc(/C=N/n2c(C)n[nH]c2=O)cc(OC)c1OC`: the TGI was more than 100 µM in the assay with HCT-116 colon; more than 100 µM in the assay on MDA-MB-435; 49.7 µM in the assay on HS 578T breast; more than 100 µM with U251 CNS; more than 100 µM in the assay on A549 NSCLC; more than 100 µM with SNB-19 CNS. The TGI in the assay with SW-620 colon, in the assay on MDA-N, with EKVX NSCLC, in the assay with MALME-3M melanoma, in the assay with NCI/ADR-RES ovarian and in the assay on UACC-62 melanoma was more than 100 µM in each case.
Consider `C[C@]12CC[C@H](O)CC1=CC[C@@H]1[C@@H]2CC[C@]2(C)NC(=O)/C(=C\c3ccccc3)C[C@@H]12`, for which the TGI with HCT-116 colon was determined as 37 µM; with MDA-MB-435, 37.8 µM; with U251 CNS, 30.3 µM; with A549 NSCLC it was 33.4 µM; in the assay on SNB-19 CNS it was 27.8 µM; with SW-620 colon, 34.6 µM. Moreover, the TGI is 69.8 µM in the assay with MDA-N; 23.1 µM with NCI-H522 lung; 28.4 µM in the assay on EKVX NSCLC; 30.3 µM in the assay with MALME-3M melanoma; 53 µM in the assay with NCI/ADR-RES ovarian; 38.6 µM in the assay with UACC-62 melanoma. For the same compound, in the assay with IGROV1 ovarian, the TGI came out at 33.8 µM.
